Measured values published in US20110305637A1, “RADIOLABELLED PDE10 LIGANDS” (Janssen Pharmaceutica N.V., priority 2009, published 2011).

What was measured:
rat PDE10A2 = target: T1, rat PDE10A2 (Rattus norvegicus, UniProt Q9QYJ6); assay: rat PDE10A2-cAMP inhibition; assay type: biochemical; settings: read-out: pIC50, rat PDE10A2-cAMP inhibition (converted)
T1 sequence (Q9QYJ6 1-794): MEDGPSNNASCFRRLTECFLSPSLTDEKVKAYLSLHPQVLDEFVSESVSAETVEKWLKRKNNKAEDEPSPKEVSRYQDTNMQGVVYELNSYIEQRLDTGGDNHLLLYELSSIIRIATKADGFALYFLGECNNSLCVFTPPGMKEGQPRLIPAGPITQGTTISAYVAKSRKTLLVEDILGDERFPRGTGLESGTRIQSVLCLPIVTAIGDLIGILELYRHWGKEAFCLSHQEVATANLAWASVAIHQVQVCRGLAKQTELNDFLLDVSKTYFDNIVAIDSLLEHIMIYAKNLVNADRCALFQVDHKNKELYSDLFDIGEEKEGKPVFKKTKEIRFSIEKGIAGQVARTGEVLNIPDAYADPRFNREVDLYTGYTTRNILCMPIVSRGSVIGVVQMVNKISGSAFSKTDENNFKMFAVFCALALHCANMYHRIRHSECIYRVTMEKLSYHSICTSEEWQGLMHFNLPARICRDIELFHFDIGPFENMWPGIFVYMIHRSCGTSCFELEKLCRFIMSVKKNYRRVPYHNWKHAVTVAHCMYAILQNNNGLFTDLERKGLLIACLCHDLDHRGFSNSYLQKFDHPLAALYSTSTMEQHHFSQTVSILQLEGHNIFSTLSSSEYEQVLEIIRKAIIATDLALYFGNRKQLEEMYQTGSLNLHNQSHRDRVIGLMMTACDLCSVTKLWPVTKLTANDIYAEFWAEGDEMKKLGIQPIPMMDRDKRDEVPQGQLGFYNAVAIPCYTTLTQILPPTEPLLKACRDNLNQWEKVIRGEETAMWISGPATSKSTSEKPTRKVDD
Procedure: The affinity of compounds Ia and Ib was determined by measuring rat PDE10A2-cAMP inhibition: […]

PDE8A1 = PDE8A1 (Homo sapiens, UniProt O60658); assay: selectivity over PDE8A1; assay type: biochemical
Chain of PDE8A1 (O60658 whole entry, species assumed): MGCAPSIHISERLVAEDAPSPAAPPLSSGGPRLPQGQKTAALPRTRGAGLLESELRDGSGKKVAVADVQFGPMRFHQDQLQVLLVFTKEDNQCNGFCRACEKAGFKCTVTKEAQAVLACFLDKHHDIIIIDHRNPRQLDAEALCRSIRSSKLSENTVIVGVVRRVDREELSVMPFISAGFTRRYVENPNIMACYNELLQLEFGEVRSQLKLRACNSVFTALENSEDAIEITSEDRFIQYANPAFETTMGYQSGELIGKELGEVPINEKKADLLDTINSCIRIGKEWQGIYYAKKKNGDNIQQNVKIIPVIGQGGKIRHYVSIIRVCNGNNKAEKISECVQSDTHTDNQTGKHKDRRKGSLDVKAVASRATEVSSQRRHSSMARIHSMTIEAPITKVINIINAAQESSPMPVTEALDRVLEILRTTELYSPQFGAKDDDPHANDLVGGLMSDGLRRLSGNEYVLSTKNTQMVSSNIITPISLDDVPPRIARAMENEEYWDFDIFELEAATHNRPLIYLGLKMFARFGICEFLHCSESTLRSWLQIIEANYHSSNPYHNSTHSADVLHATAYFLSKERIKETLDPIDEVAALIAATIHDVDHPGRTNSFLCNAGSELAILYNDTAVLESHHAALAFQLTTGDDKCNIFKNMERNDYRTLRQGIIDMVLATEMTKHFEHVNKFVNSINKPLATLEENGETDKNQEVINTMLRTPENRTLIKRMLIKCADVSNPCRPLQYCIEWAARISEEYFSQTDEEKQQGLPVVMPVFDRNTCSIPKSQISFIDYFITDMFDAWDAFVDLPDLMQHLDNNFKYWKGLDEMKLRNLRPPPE

IC50 (rat PDE10A2) [nM] | melting point [°C] | selective over PDE8A1 (PDE8A1) [fold] | SMILES
0.479 |  |  | FCCn1cc(-c2ccncc2)c(-c2ccc(OCc3ccc4ccccc4n3)cc2)n1 [Ia, 2-{4-[1-(2-Fluoroethyl)-4-pyridin-4-yl-1H-1-pyrazol-3-yl]-phenoxymethyl}-quinoline]
0.692 | 101.9 | > 200 | FCCCn1cc(-c2ccncc2)c(-c2ccc(OCc3ccc4ccccc4n3)cc2)n1 [Ib, 2-{4-[1-(3-Fluoropropyl)-4-pyridin-4-yl-1H-1-pyrazol-3-yl]-phenoxymethyl}-quinoline]
